Experimental data as given in PubChem BioAssay (NCI).
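All cell lines were grown in 96-well plates and treated with compound for 48 hours. TGI marks complete inhibition of growth.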

Columns and labels:
Experiment in all cases: NCI tumour cell line growth inhibition, 48 h
DU-145 prostate = tested on: DU-145 prostate
UACC-62 melanoma = tested on: UACC-62 melanoma
HS 578T breast = tested on: HS 578T breast
NCI-H522 lung = tested on: NCI-H522 lung
LOX IMVI melanoma = tested on: LOX IMVI melanoma
BT-549 breast = tested on: BT-549 breast
U251 CNS = tested on: U251 CNS
SK-MEL-5 melanoma = tested on: SK-MEL-5 melanoma
SK-OV-3 ovarian = tested on: SK-OV-3 ovarian
HL-60(TB) leukemia = tested on: HL-60(TB) leukemia
RPMI-8226 leukemia = tested on: RPMI-8226 leukemia
COLO 205 colon = tested on: COLO 205 colon
CAKI-1 renal = tested on: CAKI-1 renal
HOP-62 NSCLC = tested on: HOP-62 NSCLC
M14 melanoma = tested on: M14 melanoma
PC-3 prostate = tested on: PC-3 prostate
A549 NSCLC = tested on: A549 NSCLC
OVCAR-8 ovarian = tested on: OVCAR-8 ovarian
TK-10 renal = tested on: TK-10 renal
SF-268 CNS = tested on: SF-268 CNS
MDA-N = tested on: MDA-N
T-47D breast = tested on: T-47D breast
SF-295 CNS = tested on: SF-295 CNS
MDA-MB-435 = tested on: MDA-MB-435
K-562 leukemia = tested on: K-562 leukemia
OVCAR-4 ovarian = tested on: OVCAR-4 ovarian
786-0 renal = tested on: 786-0 renal
HT29 colon = tested on: HT29 colon
HCT-116 colon = tested on: HCT-116 colon
SK-MEL-28 melanoma = tested on: SK-MEL-28 melanoma
NCI-H23 lung = tested on: NCI-H23 lung
UACC-257 melanoma = tested on: UACC-257 melanoma
CCRF-CEM leukemia = tested on: CCRF-CEM leukemia
SR leukemia = tested on: SR leukemia
OVCAR-3 ovarian = tested on: OVCAR-3 ovarian
MALME-3M melanoma = tested on: MALME-3M melanoma
NCI/ADR-RES ovarian = tested on: NCI/ADR-RES ovarian
OVCAR-5 ovarian = tested on: OVCAR-5 ovarian
MOLT-4 leukemia = tested on: MOLT-4 leukemia
HCT-15 colon = tested on: HCT-15 colon
KM12 colon = tested on: KM12 colon
ACHN renal = tested on: ACHN renal
SW-620 colon = tested on: SW-620 colon
SNB-75 CNS = tested on: SNB-75 CNS
IGROV1 ovarian = tested on: IGROV1 ovarian
MDA-MB-231 breast = tested on: MDA-MB-231 breast
MCF7 breast = tested on: MCF7 breast
SF-539 CNS = tested on: SF-539 CNS
SN12C renal = tested on: SN12C renal
HCC-2998 colon = tested on: HCC-2998 colon
HOP-92 NSCLC = tested on: HOP-92 NSCLC
SK-MEL-2 melanoma = tested on: SK-MEL-2 melanoma
SNB-19 CNS = tested on: SNB-19 CNS
NCI-H226 lung = tested on: NCI-H226 lung
RXF 393 renal = tested on: RXF 393 renal
NCI-H460 lung = tested on: NCI-H460 lung
EKVX NSCLC = tested on: EKVX NSCLC
UO-31 renal = tested on: UO-31 renal
A498 renal = tested on: A498 renal

COc1cc(OC)c(OC)cc1/C=C/c1ccc2ccccc2n1
TGI (DU-145 prostate): > 10 µM
TGI (UACC-62 melanoma): > 10 µM
TGI (HS 578T breast): > 10 µM
TGI (NCI-H522 lung): > 10 µM
TGI (LOX IMVI melanoma): > 10 µM
TGI (BT-549 breast): > 10 µM
TGI (U251 CNS): > 10 µM
TGI (SK-MEL-5 melanoma): > 10 µM
TGI (SK-OV-3 ovarian): > 10 µM
TGI (HL-60(TB) leukemia): > 10 µM
TGI (RPMI-8226 leukemia): > 10 µM
TGI (COLO 205 colon): > 10 µM
TGI (CAKI-1 renal): > 10 µM
TGI (HOP-62 NSCLC): > 10 µM
TGI (M14 melanoma): > 10 µM
TGI (PC-3 prostate): > 10 µM
TGI (A549 NSCLC): > 10 µM
TGI (OVCAR-8 ovarian): > 10 µM
TGI (TK-10 renal): > 10 µM
TGI (SF-268 CNS): > 10 µM
TGI (MDA-N): > 10 µM
TGI (T-47D breast): > 10 µM
TGI (SF-295 CNS): > 10 µM
TGI (MDA-MB-435): > 10 µM
TGI (K-562 leukemia): > 10 µM
TGI (OVCAR-4 ovarian): > 10 µM
TGI (786-0 renal): > 10 µM
TGI (HT29 colon): > 10 µM
TGI (HCT-116 colon): > 10 µM
TGI (SK-MEL-28 melanoma): > 10 µM
TGI (NCI-H23 lung): > 10 µM
TGI (UACC-257 melanoma): > 10 µM
TGI (CCRF-CEM leukemia): > 10 µM
TGI (SR leukemia): > 10 µM
TGI (OVCAR-3 ovarian): > 10 µM
TGI (MALME-3M melanoma): > 10 µM
TGI (NCI/ADR-RES ovarian): > 10 µM
TGI (OVCAR-5 ovarian): > 10 µM
TGI (MOLT-4 leukemia): > 10 µM
TGI (HCT-15 colon): > 10 µM
TGI (KM12 colon): > 10 µM
TGI (ACHN renal): > 10 µM
TGI (SW-620 colon): > 10 µM
TGI (SNB-75 CNS): > 10 µM
TGI (IGROV1 ovarian): > 10 µM
TGI (MDA-MB-231 breast): > 10 µM
TGI (MCF7 breast): > 10 µM
TGI (SF-539 CNS): > 10 µM
TGI (SN12C renal): > 10 µM
TGI (HCC-2998 colon): > 10 µM
TGI (HOP-92 NSCLC): > 10 µM

CN(C)CC(O)CNC(=O)Nc1ccccc1 (configuration not stated)
TGI (DU-145 prostate): > 100 µM
TGI (UACC-62 melanoma): > 100 µM
TGI (SK-MEL-2 melanoma): > 100 µM
TGI (HS 578T breast): > 100 µM
TGI (LOX IMVI melanoma): > 100 µM
TGI (BT-549 breast): > 100 µM
TGI (U251 CNS): > 100 µM
TGI (SNB-19 CNS): > 100 µM
TGI (SK-MEL-5 melanoma): > 100 µM
TGI (SK-OV-3 ovarian): > 100 µM
TGI (HL-60(TB) leukemia): > 100 µM
TGI (RPMI-8226 leukemia): > 100 µM
TGI (COLO 205 colon): > 100 µM
TGI (CAKI-1 renal): > 100 µM
TGI (HOP-62 NSCLC): > 100 µM
TGI (M14 melanoma): > 100 µM
TGI (PC-3 prostate): > 100 µM
TGI (NCI-H226 lung): > 100 µM
TGI (A549 NSCLC): > 100 µM
TGI (OVCAR-8 ovarian): > 100 µM
TGI (TK-10 renal): > 100 µM
TGI (SF-268 CNS): > 100 µM
TGI (RXF 393 renal): > 100 µM
TGI (MDA-N): > 100 µM
TGI (NCI-H460 lung): > 100 µM
TGI (EKVX NSCLC): > 100 µM
TGI (T-47D breast): > 100 µM
TGI (SF-295 CNS): > 100 µM
TGI (MDA-MB-435): > 100 µM
TGI (K-562 leukemia): > 100 µM
TGI (OVCAR-4 ovarian): > 100 µM
TGI (786-0 renal): > 100 µM
TGI (HT29 colon): > 100 µM
TGI (HCT-116 colon): > 100 µM
TGI (SK-MEL-28 melanoma): > 100 µM
TGI (NCI-H23 lung): > 100 µM
TGI (UACC-257 melanoma): > 100 µM
TGI (CCRF-CEM leukemia): > 100 µM
TGI (OVCAR-3 ovarian): > 100 µM
TGI (MALME-3M melanoma): > 100 µM
TGI (NCI/ADR-RES ovarian): > 100 µM
TGI (OVCAR-5 ovarian): > 100 µM
TGI (HCT-15 colon): > 100 µM
TGI (KM12 colon): > 100 µM
TGI (ACHN renal): > 100 µM
TGI (UO-31 renal): > 100 µM
TGI (SW-620 colon): > 100 µM
TGI (SNB-75 CNS): > 100 µM
TGI (IGROV1 ovarian): > 100 µM
TGI (MDA-MB-231 breast): > 100 µM
TGI (MCF7 breast): > 100 µM
TGI (SF-539 CNS): > 100 µM
TGI (A498 renal): > 100 µM
TGI (SN12C renal): > 100 µM
TGI (HCC-2998 colon): > 100 µM
TGI (HOP-92 NSCLC): > 100 µM
